We go through 16 compounds from patent publication US10722501B2 (BAYER AKTIENGESELLSCHAFT, priority 2016, dated 2020).

The target in the first assay is T1, recombinant full-length human prolyl endopeptidase (PREP) (Homo sapiens, UniProt P48147).
T1 construct: To recombinant full-length human prolyl endopeptidase (PREP, R&D-Systems, 4308-SE); purchased R&D-Systems 4308-SE
T1 sequence (P48147 1-710): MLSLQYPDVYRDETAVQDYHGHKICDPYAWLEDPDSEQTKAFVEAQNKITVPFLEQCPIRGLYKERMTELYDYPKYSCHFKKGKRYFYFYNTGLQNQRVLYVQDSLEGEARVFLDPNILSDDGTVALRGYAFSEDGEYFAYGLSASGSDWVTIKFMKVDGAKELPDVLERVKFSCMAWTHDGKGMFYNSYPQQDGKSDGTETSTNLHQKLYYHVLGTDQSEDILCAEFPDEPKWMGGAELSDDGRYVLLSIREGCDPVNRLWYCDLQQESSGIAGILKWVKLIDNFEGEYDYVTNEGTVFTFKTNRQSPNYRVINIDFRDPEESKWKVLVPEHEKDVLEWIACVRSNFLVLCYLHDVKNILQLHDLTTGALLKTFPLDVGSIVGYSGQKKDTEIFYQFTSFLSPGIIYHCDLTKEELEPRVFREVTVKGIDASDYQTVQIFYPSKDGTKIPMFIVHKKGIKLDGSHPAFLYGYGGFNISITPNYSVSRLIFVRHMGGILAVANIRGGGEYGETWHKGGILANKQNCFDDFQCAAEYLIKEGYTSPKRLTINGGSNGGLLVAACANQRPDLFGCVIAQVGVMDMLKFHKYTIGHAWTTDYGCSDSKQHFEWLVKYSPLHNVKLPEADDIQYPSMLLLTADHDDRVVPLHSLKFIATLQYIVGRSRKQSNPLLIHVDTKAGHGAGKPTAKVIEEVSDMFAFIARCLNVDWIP
The assay is described as follows: Biochemical human prolyl endopeptidase (PREP) assay with fluorescently labelled substrate. To be noted: substrate Z-Gly-Pro-AMC 50 μM, 32° C., 60 min; some as mean values from multiple independent determinations. An outline of the steps: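 Initial rates of fluorescence increase from 50 μM Z-Gly-Pro-AMC cleavage (ex 360/em 465 nm, 60 min, 32° C) give percent PREP activity versus no-compound control, and IC50 is interpolated. Enzyme used at 0.4 nM (final, example) in Tris pH 7.5 with EDTA, GSH, BSA and Brij-35; compounds span 1 nM to 30 μM.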
Regarding `O=C([C@@H]1CCC(F)(F)c2nn(Cc3ccc(Cl)cn3)c(=O)n21)N1CC[C@H](F)C1` [Example 555, (5S)-2-[(5-Chloropyridin-2-yl)methyl]-8,8-difluoro-5-{[(3S)-3-fluoropyrrolidin-1-yl]carbonyl}-5,6,7,8-tetrahydro[1,2,4]triazolo[4,3-a]pyridin-3(2H)-one], the IC50 was found to be 0.54 nM.

As for `O=C([C@@H]1CCC(F)(F)c2nn(Cc3ncc(Cl)cc3F)c(=O)n21)N1CC[C@H](F)C1` [Example 556, (5S)-2-[(5-chloro-3-fluoropyridin-2-yl)methyl]-8,8-difluoro-5-{[(3S)-3-fluoropyrrolidin-1-yl]carbonyl}-5,6,7,8-tetrahydro[1,2,4]triazolo[4,3-a]pyridin-3(2H)-one], the IC50 worked out at 0.63 nM.

As to `O=C([C@@H]1CCC(F)(F)c2nn(Cc3ccc(Cl)nc3)c(=O)n21)N1CCC(F)(F)C1` [Example 557, (5S)-2-[(6-Chloropyridin-3-yl)methyl]-5-[(3,3-difluoropyrrolidin-1-yl)carbonyl]-8,8-difluoro-5,6,7,8-tetrahydro[1,2,4]triazolo[4,3-a]pyridin-3(2H)-one], the IC50 stood at 3.2 nM.

Regarding `O=C([C@@H]1CC=Cc2nn(Cc3ccc(C(F)(F)F)nc3)c(=O)n21)N1C[C@@H](F)[C@@H](F)C1` [Example 558, (5S)-5-{[(3R,4S)-3,4-Difluoropyrrolidin-1-yl]carbonyl}-2-{[6-(trifluoromethyl)pyridin-3-yl]methyl}-5,6-dihydro[1,2,4]triazolo[4,3-a]pyridin-3(2H)-one], the IC50 came out at 1.9 nM.

Turning to `O=C([C@@H]1CCCc2nn(Cc3cnc(C(F)(F)F)nc3)c(=O)n21)N1CC[C@H](F)C1` [Example 559, (5S)-5-{[(3S)-3-Fluoropyrrolidin-1-yl]carbonyl}-2-{[2-(trifluoromethyl)pyrimidin-5-yl]methyl}-5,6,7,8-tetrahydro[1,2,4]triazolo[4,3-a]pyridin-3(2H)-one], the IC50 was 35 nM.

For `O=C([C@@H]1CCCc2nn(Cc3ncc(F)cc3Cl)c(=O)n21)N1CC[C@H](F)C1` [Example 560, (5S)-2-[(3-Chloro-5-fluoropyridin-2-yl)methyl]-5-{[(3S)-3-fluoropyrrolidin-1-yl]carbonyl}-5,6,7,8-tetrahydro[1,2,4]triazolo[4,3-a]pyridin-3(2H)-one], the IC50 worked out at 0.43 nM.

As to `O=C([C@@H]1CCCc2nn(Cc3ncc(Cl)cc3F)c(=O)n21)N1CC[C@H](F)C1` [Example 568, (5S)-2-[(5-Chloro-3-fluoropyridin-2-yl)methyl]-5-{[(3S)-3-fluoropyrrolidin-1-yl]carbonyl}-5,6,7,8-tetrahydro[1,2,4]triazolo[4,3-a]pyridin-3(2H)-one], the IC50 was found to be 0.62 nM.

With `O=C([C@@H]1CCCc2nn(Cc3cncc(C(F)(F)F)c3)c(=O)n21)N1C[C@@H](F)[C@@H](F)C1` [Example 578, (5S)-5-{[(3R,4S)-3,4-Difluoropyrrolidin-1-yl]carbonyl}-2-{[5-(trifluoromethyl)pyridin-3-yl]methyl}-5,6,7,8-tetrahydro[1,2,4]triazolo[4,3-a]pyridin-3(2H)-one], the IC50 was found to be 2.3 nM.

For the compound `O=C([C@@H]1CCCc2nn(Cc3cncc(C(F)(F)F)c3)c(=O)n21)N1CCC(F)(F)C1` [Example 579, (5S)-5-[(3,3-Difluoropyrrolidin-1-yl)carbonyl]-2-{[5-(trifluoromethyl)pyridin-3-yl]methyl}-5,6,7,8-tetrahydro[1,2,4]triazolo[4,3-a]pyridin-3(2H)-one], the IC50 was found to be 1.1 nM.

Take `O=C([C@@H]1CCCc2nn(Cc3ncc(F)cc3F)c(=O)n21)N1CC[C@H](F)C1` [Example 581, (5S)-2-[(3,5-Difluoropyridin-2-yl)methyl]-5-{[(3S)-3-fluoropyrrolidin-1-yl]carbonyl}-5,6,7,8-tetrahydro[1,2,4]triazolo[4,3-a]pyridin-3(2H)-one]: the IC50 turned out to be 0.3 nM.

As to `O=C([C@@H]1CCC(F)(F)c2nn(Cc3ccc(Cl)cn3)c(=O)n21)N1CCC(F)(F)C1` [Example 586, (5S)-2-[(5-Chloropyridin-2-yl)methyl]-5-[(3,3-difluoropyrrolidin-1-yl)carbonyl]-8,8-difluoro-5,6,7,8-tetrahydro[1,2,4]triazolo[4,3-a]pyridin-3(2H)-one], the IC50 came to 14 nM.

For `O=C([C@@H]1CCC(F)(F)c2nn(Cc3ccc(Cl)cn3)c(=O)n21)N1CC(F)C1` [Example 587, (5S)-2-[(5-Chloropyridin-2-yl)methyl]-8,8-difluoro-5-[(3-fluoroazetidin-1-yl)carbonyl]-5,6,7,8-tetrahydro[1,2,4]triazolo[4,3-a]pyridin-3(2H)-one], the IC50 worked out at 6.4 nM.

For `O=C([C@@H]1CCC(F)(F)c2nn(Cc3ncc(F)cc3F)c(=O)n21)N1CCC(F)(F)C1` [Example 588, (5S)-2-[(3,5-Difluoropyridin-2-yl)methyl]-5-[(3,3-difluoropyrrolidin-1-yl)carbonyl]-8,8-difluoro-5,6,7,8-tetrahydro[1,2,4]triazolo[4,3-a]pyridin-3(2H)-one], the IC50 is 18 nM.

With `O=C([C@@H]1CCC(F)(F)c2nn(Cc3ncc(C(F)(F)F)cc3Cl)c(=O)n21)N1CC[C@H](F)C1` [Example 589, (5S)-2-{[3-Chloro-5-(trifluoromethyl)pyridin-2-yl]methyl}-8,8-difluoro-5-{[(3S)-3-fluoropyrrolidin-1-yl]carbonyl}-5,6,7,8-tetrahydro[1,2,4]triazolo[4,3-a]pyridin-3(2H)-one], the IC50 worked out at 0.35 nM.

Consider `O=C([C@@H]1CCC(F)(F)c2nn(Cc3ncc(C(F)(F)F)cc3Cl)c(=O)n21)N1CCC(F)(F)C1` [Example 590, (5S)-2-{[3-Chloro-5-(trifluoromethyl)pyridin-2-yl]methyl}-5-[(3,3-difluoropyrrolidin-1-yl)carbonyl]-8,8-difluoro-5,6,7,8-tetrahydro[1,2,4]triazolo[4,3-a]pyridin-3(2H)-one], for which the IC50 came to 3.9 nM.

For the next assay, the system named is PGP.
Assay: not given
Particulars: COPD patients treated; cited from earlier work.
Consider `O=C(Nc1c(Cl)cncc1Cl)c1ccc(OC(F)F)c(OCC2CC2)c1` [roflumilast], for which the “concentration of PGP in the sputum and serum” value was “decrease”.

As usually defined, the IC50 is the concentration that inhibits the measured activity by half.
